This is an account of results in patent publication US20100099698A1, “Compositions for Improving Skin Conditions Comprising Matrine or Its Oxidized Derivatives” (Biospectrum Inc., priority 2007, published 2010).

Series [1] concerns the target T1, collagenase (MMP-1) (Homo sapiens, UniProt P03956).
T1 construct: Following incubation, the cell medium was collected and was used as samples; endogenous in cells; host or cells: human fibroblasts (PMA-induced)
T1 sequence (P03956 100-469): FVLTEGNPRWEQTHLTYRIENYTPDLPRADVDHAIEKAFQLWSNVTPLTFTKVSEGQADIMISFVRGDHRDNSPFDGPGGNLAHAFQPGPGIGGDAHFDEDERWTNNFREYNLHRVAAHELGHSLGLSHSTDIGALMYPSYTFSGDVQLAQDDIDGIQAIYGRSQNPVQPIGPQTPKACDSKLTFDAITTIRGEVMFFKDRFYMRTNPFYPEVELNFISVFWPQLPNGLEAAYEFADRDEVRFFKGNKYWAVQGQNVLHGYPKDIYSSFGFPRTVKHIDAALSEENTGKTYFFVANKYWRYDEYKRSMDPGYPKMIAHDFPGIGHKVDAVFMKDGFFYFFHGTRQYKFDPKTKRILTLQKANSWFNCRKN
Kind of series: Collagenase activity, Type 1 collagenase assay kit, PMA-induced. The format is cell-based. As for the experimental part: (§1) Human fibroblasts (commercially available from pacific) were seeded into a 6-well plate (2×10^5 cells/well) and the well plate was incubated in a 5% CO2 incubator for 24 hr at 37° C. After 24 hr, the medium in each well was removed and samples were treated with various concentrations, followed by incubating again for 24 hr. Following incubation, the cell medium was collected and was used as samples. To measure cytotoxicity of samples to fibroblasts, MIT reagent (1 mg/ml) was added to each well in 1/10 fold volume of the remaining medium, incubated for 3 hr and the medium was eliminated. The medium was dissolved in DMSO and its absorbance at 540 nm was measured.
As a method of measuring the activity of collagenase, an enzyme that decomposes collagen, an antibody against collagenase was used. As material inducing collagenase activity, PMA (phorbol myristate acetate, Sigma) was treated. For measuring collagenase activity, a Type 1 collagenase assay kit (Amersham Biosciences, RPN2629) was used, and the absorbance was measured using an ELISA reader (Bio-Tek ELx808™ Series Ultra Microplate Reader, U.K). The measured average values were represented as mean±standard deviation.

Series [2] concerns the target T2, tyrosinase (Mus musculus, UniProt P11344).
T2 construct: This cell pellets were lysated using lysis buffer, centrifuged at 12,000 rpm for 10 min and the supernatant was collected; endogenous in cells; host or cells: B16 F1 mouse melanoma cells (Korean Cell Line Bank)
T2 sequence (P11344 19-533): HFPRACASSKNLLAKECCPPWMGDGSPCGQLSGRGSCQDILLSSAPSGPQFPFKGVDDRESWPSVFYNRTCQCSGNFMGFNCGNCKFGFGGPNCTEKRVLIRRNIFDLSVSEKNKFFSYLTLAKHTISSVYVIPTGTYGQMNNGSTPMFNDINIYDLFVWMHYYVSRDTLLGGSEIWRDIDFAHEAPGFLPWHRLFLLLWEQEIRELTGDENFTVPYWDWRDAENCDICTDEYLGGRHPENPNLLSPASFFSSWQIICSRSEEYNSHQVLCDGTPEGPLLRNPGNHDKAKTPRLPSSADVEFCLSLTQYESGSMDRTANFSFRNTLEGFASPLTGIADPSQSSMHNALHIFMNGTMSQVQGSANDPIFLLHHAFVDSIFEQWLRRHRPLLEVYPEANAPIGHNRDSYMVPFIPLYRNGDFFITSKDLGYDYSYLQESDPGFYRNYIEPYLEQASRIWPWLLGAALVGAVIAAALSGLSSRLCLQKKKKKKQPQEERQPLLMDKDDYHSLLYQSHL
Kind of series: Inhibition of intracellular tyrosinase activity in melanoma cells. The format is cell-based, Murine. Conditions: B16-F1, read-out: Inhibitory rate of intracellular tyrosinase activity (%). The procedure: After measuring the inhibition of melanin production by matrine and oxymatrine using B16 mouse melanoma cells (Korean Cell Line Bank), the measurement was compared with that for the inhibition of intracellular tyrosinase activities by arbutin, known as a melanin production inhibitor.
Murine melanoma (B-16 F1) cells were seeded into each well of a 6-well plate (1×10^5 cells/well) in DMEM containing 10% FBS (fetal bovine serum) and the cells were cultured to about more than 80% adherence by incubating in a CO2 incubator under conditions of 37° C. and 5.0% CO2. After cultivation, the medium was removed and samples were replaced in medium diluted at suitable concentration, followed by incubating for 3 days under conditions of 37° C. and 5.0% CO2. […] The cells removing medium were washed with PBS (phosphate buffer saline) and treated with trypsin to collect cells. Number of the collected cells was calculated using hematocytometer, centrifuged at 5,000 to 10,000 rpm for 10 min and the supernatant was eliminated, thereby obtaining pellets. This cell pellets were lysated using lysis buffer, centrifuged at 12,000 rpm for 10 min and the supernatant was collected. Then, the cell solution was measured for absorbance at 492 nm using microplate reader and the activity of tyrosinase per cell constant number was estimated.

For series [3], the system named is human skin. Kind of series: 24-hour cumulative patch test (Finn chamber), cumulative skin irritation. Conditions: for Average reaction level: 9 patches, 30 adults, safe if below 3. The format is in vivo. As for the experimental part:
In order to find out whether matrine and oxymatrine are safe for use on human skin, a skin safety test was conducted. Suitable for this was a cumulative skin irritation test.
Squalene-based preparations containing matrine and oxymatrine in amounts of 1%, 5%, and 10% were applied in patches 9 times to the upper arms of 30 healthy adults once every other day for a total time period of 24 hours. This 24-hour cumulative patch test was conducted to determine whether matrine and oxymatrine irritates the skin or not.
The Finn chamber (Epitest Ltd, Finland) was chosen as the patching method. The above preparation for external use on the skin was dropped into each chamber in an amount of 15 μl, and a patch was applied.
Average reaction level=[{(Reaction index x reaction level)/No. of test subjects×maximum points (4 points)}×100]÷No. of test (9 times) Equation 2
Points were marked in accordance with reaction level, for example, ± for 1 point, + for 2 points, and ++ for […]. The composition can be considered safe if the average reaction level is below 3.

For series [4], the system named is collagen (Type 1 collagen) biosynthesis. Kind of series: Collagen synthesis: procollagen type I C-peptide (PICP) EIA in medium of treated fibroblasts. The format is cell-based. Conditions: 24 hr, human fibroblasts. The procedure:
as §1
The extent of collagen synthesis was determined by measuring the amount of procollagen type I C-peptide (PICP) in cell medium using Procollagen Type I C-peptide EIA kit (MK101, Takara, Kyoto, Japan). The method was performed in accordance with manufacturer's protocol.

In series [5] the test system is Interleukin-2 promoter. Kind of series: Interleukin-2 luciferase reporter activity in PHA-activated Jurkat cells. The format is cell-based, Human. Conditions: PHA alone = 100. The procedure:
Interleukin-2 promoter was reported to play an important role in the generation of cytokine related to inflammatory. The activity of interleukin-2 luciferase was measured using the following method: […] Following 24 hr, the cell was collected and the luciferase activity was measured using luminometer (Berthold Technologies GmbH&Co.KG, Germany).
Background: Reporter assays use an easily measured gene product as a stand-in for the process of interest.

The mark [6] stands for this setting: 5% in squalene, Week 1, of 30 subjects.
Where [7] appears, read: 10% in squalene, Week 1, of 30 subjects.

In series [1], `O=C1CCC[C@@H]2[C@H]3CCC[N+]4([O-])CCC[C@@H](CN12)[C@@H]34` (some centres unmarked) [Oxymatrine, oxymatrine] registered an inhibition at 1 µM of 6%. Besides, the inhibition at 10 µM was determined as 13% in series [1] and 11% in series [2]. Also, the inhibition at 50 µM in series [1] amounted to 17%. For the same compound, the inhibition at 100 µM in series [2] was 29%. In addition, the inhibition at 500 µM in series [2] came out at 34%. Besides, the “No. of test subjects with reaction, 1st, ±” value in series [3] (human, in vivo) was 2; in series [3] (in vivo), “−”. In addition, the “No. of test subjects with reaction, 2nd, ±” value in series [3] (human, in vivo) was determined as 0. Moreover, the “Increasing rate of collagen synthesis (%)” value in series [4] (1 μM) was 11%; in series [4] (10 μM), 15%; in series [4] (50 μM) it was 22%. In addition, the results for the IL-2 luciferase activities in series [5] (10 uM with PHA (100 ng/ml)), in series [5] (100 uM with PHA (100 ng/ml)) and in series [5] (500 uM with PHA (100 ng/ml)) were 95, 78 and 62, respectively.

In turn, `O=C1CCC[C@@H]2[C@H]3CCCN4CCC[C@@H](CN12)[C@@H]34` [Matrine, matrine] came in with an inhibition at 1 µM in series [1] of 19%. For the same compound, the inhibition at 10 µM in series [1] was 20%; in series [2] it was 13%. In series [1], this compound had an inhibition at 50 µM of 32%. Moreover, the inhibition at 100 µM in series [2] turned out to be 32%. The inhibition at 500 µM in series [2] was found to be 37%. Further, the Average reaction level was 0 in series [3] (1% in squalene), 0.09 in series [3] (5% in squalene) and 0.18 in series [3] (10% in squalene). In addition, the “No. of test subjects with reaction, 2nd, ±” value amounted to 0 in series [3] (1% in squalene, Week 1, of 30 subjects); 0 in series [3] (setting [6]); 0 in series [3] (setting [7]). Besides, the “No. of test subjects with reaction, 1st, ±” value in series [3] (setting [6]) was 1; in series [3] (setting [7]), 2. In addition, the “Increasing rate of collagen synthesis (%)” value in series [4] (1 μM) stood at 20%; in series [4] (10 μM) it was 23%; in series [4] (50 μM) it was 40%. The results for the IL-2 luciferase activities in series [5] (10 uM with PHA (100 ng/ml)), in series [5] (100 uM with PHA (100 ng/ml)) and in series [5] (500 uM with PHA (100 ng/ml)) were 92, 77 and 68, respectively.
